Key:
Experiment in all cases: relative viability (nuclei count vs DMSO), 5 days (fraction); higher = more cells survive
Doramapimod + Dasatinib = compound: Cc1ccc(-n2nc(C(C)(C)C)cc2NC(=O)Nc2ccc(OCCN3CCOCC3)c3ccccc23)cc1 [Doramapimod] + Cc1nc(Nc2ncc(C(=O)Nc3c(C)cccc3Cl)s2)cc(N2CCN(CCO)CC2)n1 [Dasatinib] (partner 0.075 µM)
Method in brief: (§1)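 Relative viability was taken as the ratio of nuclei in treated wells to nuclei in vehicle wells. Lung cancer cell lines in 1536-well plates received compounds by pin tool one day after seeding, either one drug alone or a fixed anchor-drug dose plus five library-drug doses (not always all listed) in √10 steps. Nuclei were counted on 4× images after 5 days of treatment, and values are medians of duplicate plates.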

RAF265 + Trametinib = compound: Cn1c(Nc2ccc(C(F)(F)F)cc2)nc2cc(Oc3ccnc(-c4ncc(C(F)(F)F)[nH]4)c3)ccc21 [RAF265] + CC(=O)Nc1cccc(-n2c(=O)n(C3CC3)c(=O)c3c(Nc4ccc(I)cc4F)n(C)c(=O)c(C)c32)c1 [Trametinib] (partner 0.02 µM)
Method in brief: as §1

RAF265 + Tozasertib = compound: Cn1c(Nc2ccc(C(F)(F)F)cc2)nc2cc(Oc3ccnc(-c4ncc(C(F)(F)F)[nH]4)c3)ccc21 [RAF265] + Cc1cc(Nc2cc(N3CCN(C)CC3)nc(Sc3ccc(NC(=O)C4CC4)cc3)n2)n[nH]1 [Tozasertib] (partner 0.1 µM)
Method in brief: as §1

RAF265 + Vorinostat = compound: Cn1c(Nc2ccc(C(F)(F)F)cc2)nc2cc(Oc3ccnc(-c4ncc(C(F)(F)F)[nH]4)c3)ccc21 [RAF265] + O=C(CCCCCCC(=O)Nc1ccccc1)NO [Vorinostat] (partner 1 µM)
Method in brief: as §1

UMC-11 was tested, and the relative viability (Doramapimod + Dasatinib; first compound 0.02 µM) was 0.435, the relative viability (Doramapimod + Dasatinib; first compound 0.06325 µM) was 0.447 and the relative viability (Doramapimod + Dasatinib; first compound 0.2 µM) was 0.46. The relative viability (Doramapimod + Dasatinib; first compound 0.6325 µM) was 0.52, the relative viability (Doramapimod + Dasatinib; first compound 2 µM) was 0.368 and the relative viability (RAF265 + Trametinib; first compound 0.01 µM) was 0.749. For the same cell line, the relative viability (RAF265 + Trametinib; first compound 0.03162 µM) was 0.634, the relative viability (RAF265 + Trametinib; first compound 0.1 µM) was 0.748 and the relative viability (RAF265 + Trametinib; first compound 0.3162 µM) was 0.855. For the same cell line, the relative viability (RAF265 + Trametinib; first compound 1 µM) was 0.649, the relative viability (RAF265 + Tozasertib; first compound 0.01 µM) was 0.191 and the relative viability (RAF265 + Tozasertib; first compound 0.03162 µM) was 0.212. The relative viability (RAF265 + Tozasertib; first compound 0.1 µM) was 0.201, the relative viability (RAF265 + Tozasertib; first compound 0.3162 µM) was 0.19 and the relative viability (RAF265 + Tozasertib; first compound 1 µM) was 0.174. The relative viability (RAF265 + Vorinostat; first compound 0.01 µM) was 0.458, the relative viability (RAF265 + Vorinostat; first compound 0.03162 µM) was 0.4 and the relative viability (RAF265 + Vorinostat; first compound 0.1 µM) was 0.343. It also gave a relative viability (RAF265 + Vorinostat; first compound 0.3162 µM) of 0.357 and a relative viability (RAF265 + Vorinostat; first compound 1 µM) of 0.32.

From the supplement of paper PMC10307832
